Laboratory results from article PMC2828351 (Bioorganic & medicinal chemistry, 2009).

What was measured:
JNK = JNK (Homo sapiens, UniProt P45983); assay: LanthaScreen kinase activity assay; type: biochemical
GST-JNK1 = GST-JNK1 (Homo sapiens, UniProt P45983); assay: pepJIP1 DELFIA displacement assay; type: binding
p38α = p38α (Homo sapiens, UniProt Q16539); assay: Selectivity profile: p38α kinase; type: biochemical
Akt kinase = assay: Selectivity profile: Akt kinase; type: biochemical; details: for activity against Akt kinase: no significant inhibition at 100 μM
Furin = Furin (Homo sapiens, UniProt P09958); assay: Selectivity profile: furin protease; type: biochemical
Chain of Furin (P09958 108-794, species assumed): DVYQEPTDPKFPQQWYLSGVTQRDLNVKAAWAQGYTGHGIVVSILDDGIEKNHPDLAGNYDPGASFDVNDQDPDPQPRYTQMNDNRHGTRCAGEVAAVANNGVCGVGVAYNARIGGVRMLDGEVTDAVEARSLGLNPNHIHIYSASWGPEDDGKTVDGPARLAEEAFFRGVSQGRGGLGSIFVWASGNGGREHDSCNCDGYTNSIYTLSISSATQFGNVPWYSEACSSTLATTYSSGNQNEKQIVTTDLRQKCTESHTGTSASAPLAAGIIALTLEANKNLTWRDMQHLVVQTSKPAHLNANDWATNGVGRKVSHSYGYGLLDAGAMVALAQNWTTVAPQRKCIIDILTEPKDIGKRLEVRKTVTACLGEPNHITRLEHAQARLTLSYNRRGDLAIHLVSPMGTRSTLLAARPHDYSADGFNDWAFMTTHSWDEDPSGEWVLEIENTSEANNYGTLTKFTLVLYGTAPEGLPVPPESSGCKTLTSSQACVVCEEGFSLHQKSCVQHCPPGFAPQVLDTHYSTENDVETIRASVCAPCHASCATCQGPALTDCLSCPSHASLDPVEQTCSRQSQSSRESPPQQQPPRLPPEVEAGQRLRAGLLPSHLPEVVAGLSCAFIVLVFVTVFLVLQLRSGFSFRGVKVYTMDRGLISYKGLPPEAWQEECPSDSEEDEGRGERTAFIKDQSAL

lethal factor (LF) = lethal factor (LF) (Bacillus anthracis, UniProt P15917); assay: biochemical; type: biochemical
Chain of lethal factor (LF) (P15917 34-809 limits assumed): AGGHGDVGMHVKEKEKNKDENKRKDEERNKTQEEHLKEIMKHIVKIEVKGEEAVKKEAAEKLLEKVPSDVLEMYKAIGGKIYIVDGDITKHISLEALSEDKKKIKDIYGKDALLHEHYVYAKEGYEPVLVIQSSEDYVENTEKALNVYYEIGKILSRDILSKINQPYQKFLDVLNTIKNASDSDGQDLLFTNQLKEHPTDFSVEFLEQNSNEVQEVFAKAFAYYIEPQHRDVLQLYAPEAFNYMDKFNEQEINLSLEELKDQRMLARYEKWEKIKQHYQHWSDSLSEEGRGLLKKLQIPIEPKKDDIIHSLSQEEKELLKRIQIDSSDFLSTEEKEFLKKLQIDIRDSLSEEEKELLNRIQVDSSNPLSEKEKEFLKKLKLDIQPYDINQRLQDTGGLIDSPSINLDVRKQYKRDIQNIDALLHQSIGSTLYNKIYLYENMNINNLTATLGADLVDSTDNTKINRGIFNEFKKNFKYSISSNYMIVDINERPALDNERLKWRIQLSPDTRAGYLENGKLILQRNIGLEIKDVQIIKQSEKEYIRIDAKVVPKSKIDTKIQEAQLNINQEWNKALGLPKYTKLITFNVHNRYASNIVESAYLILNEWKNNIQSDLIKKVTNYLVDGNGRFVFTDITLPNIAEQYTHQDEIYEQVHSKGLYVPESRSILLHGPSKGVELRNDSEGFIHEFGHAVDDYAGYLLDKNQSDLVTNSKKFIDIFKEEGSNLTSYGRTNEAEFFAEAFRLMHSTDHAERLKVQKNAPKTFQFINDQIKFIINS

Chain of JNK (P45983 whole entry): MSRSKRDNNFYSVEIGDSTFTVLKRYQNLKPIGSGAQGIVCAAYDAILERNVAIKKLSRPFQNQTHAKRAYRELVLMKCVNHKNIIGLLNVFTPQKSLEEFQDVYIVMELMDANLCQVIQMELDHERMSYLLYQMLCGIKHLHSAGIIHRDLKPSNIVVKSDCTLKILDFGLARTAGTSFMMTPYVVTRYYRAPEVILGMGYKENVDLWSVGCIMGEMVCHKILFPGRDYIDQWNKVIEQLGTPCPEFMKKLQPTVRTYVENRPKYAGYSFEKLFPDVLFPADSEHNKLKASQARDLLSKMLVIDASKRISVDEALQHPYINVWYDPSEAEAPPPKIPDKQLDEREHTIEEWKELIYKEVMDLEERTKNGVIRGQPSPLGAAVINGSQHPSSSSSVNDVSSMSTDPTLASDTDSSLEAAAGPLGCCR
Chain of GST-JNK1 (P45983 whole entry): as above
Chain of p38α (Q16539 whole entry): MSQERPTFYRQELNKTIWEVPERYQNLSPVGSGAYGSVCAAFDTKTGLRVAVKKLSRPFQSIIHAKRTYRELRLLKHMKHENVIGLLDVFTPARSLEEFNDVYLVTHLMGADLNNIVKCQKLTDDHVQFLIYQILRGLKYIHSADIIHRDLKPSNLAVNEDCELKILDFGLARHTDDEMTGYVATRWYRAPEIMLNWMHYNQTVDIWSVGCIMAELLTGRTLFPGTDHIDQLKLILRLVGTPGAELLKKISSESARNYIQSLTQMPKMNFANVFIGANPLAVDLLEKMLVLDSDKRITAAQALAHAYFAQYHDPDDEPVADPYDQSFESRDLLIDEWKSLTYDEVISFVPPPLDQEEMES

SMILES | activity in kinase assay / JNK inhibition (JNK) | IC50 (GST-JNK1) [µM] | also measured
Nc1ncnc2[nH]c(SCc3ccc(C(=O)O)cc3)nc12 [BI-87C7] | none of these were good JNK inhibitors | > 100 | –
Nc1ncnc2nc(Sc3ncc([N+](=O)[O-])s3)[nH]c12 [BI-87C10] | none of these were good JNK inhibitors | < 1 | –
O=C(O)c1ccc(CSc2nc3ccccc3[nH]2)cc1 [BI-87D4] | – | > 100 | –
COc1ccc2sc(Sc3ncc([N+](=O)[O-])s3)nc2c1 [BI-87D11] | – | – | times less active against p38α (vs JNK) (p38α): at least 50 times; Akt, inhibition at 100 μM (Akt kinase): 5% inhibition at 100 μM; activity against Akt kinase (Akt kinase): inactive; activity against furin (Furin): inactive; IC50 (lethal factor (LF)): > 100 µM; activity against lethal factor (lethal factor (LF)): inactive
O=[N+]([O-])c1cnc(Sc2nc3cc(Cl)ccc3s2)s1 [BI-87F2] | inactive | – | –
Cn1c(Sc2ncc([N+](=O)[O-])s2)nc2ccccc21 [BI-87F7] | no activity | – | –
O=[N+]([O-])c1cnc(Sc2nc3ccc(Cl)cc3s2)s1 [BI-87F8] | inactive | – | –
Cn1c(Sc2nc3ccc(Cl)cc3s2)nnc1-c1cccs1 [BI-87F11] | – | > 100 | –
Cn1c(Sc2nc3ccc(Cl)cc3s2)nnc1-c1ccc2ncccc2c1 [BI-87F12] | – | > 100 | –
CCOc1ccc2nc(Sc3ncc([N+](=O)[O-])s3)sc2c1 [BI-87G2] | inactive | > 100 | –
O=[N+]([O-])c1cnc(Sc2nc3ccccc3s2)s1 [BI-87G3, 2-(5-nitrothiazol-2-ylthio)benzo[d]thiazole] | – | – | times less active against p38α (vs JNK) (p38α): at least 50 times; Akt, inhibition at 100 μM (Akt kinase): 2% inhibition at 100 μM; activity against Akt kinase (Akt kinase): inactive; activity against furin (Furin): inactive; IC50 (lethal factor (LF)): > 100 µM; activity against lethal factor (lethal factor (LF)): inactive
Cn1c(Sc2nc3ccc(Cl)cc3s2)nnc1-c1ccc(Cl)cc1Cl [BI-87G12] | – | > 100 | –
O=[N+]([O-])c1cnc(Sc2nc3cc(S(=O)(=O)O)ccc3[nH]2)s1 [BI-87H1] | – | > 100 | –
